Results as given in patent US20240139148A1, “COMPOSITIONS AND METHODS FOR TREATING NON-TUBERCULOUS MYCOBACTERIAL INFECTIONS” (priority 2021, published 2024).
Values after ≈ are worked out from the molar mass of the structure shown. Where two headings read alike, the source gives them in different places.

What was measured:
WT Mabs ATCC 19977 [1] = format: cell-based, M. abscessus subsp. abscessus; conditions: for tolerance to antibiotics under hypoxia: 7 d treatment, AMK 64, AZI 32, CFZ 2, IMI 32 mg L^−1; for decrease in viability compared to DMSO-treated controls: WT strain, 40 μM, 7 d of hypoxia; for tolerance of DosS inhibitor-treated cells to AZI: AZI for 7 d under hypoxia; for tolerance of DosS inhibitor-treated cells to CFZ: CFZ for 7 d under hypoxia
[2] = system: MabsΔdosRS complemented with dosRS; format: cell-based, M. abscessus subsp. abscessus; conditions: for tolerance to antibiotics under hypoxia: dosRS complemented mutant, 7 d treatment, AMK 64, AZI 32, CFZ 2, IMI 32 mg L^−1; for decrease in viability compared to DMSO-treated controls: dosRS complemented strain, 40 μM, 7 d of hypoxia
MabsΔdosRS [3] = format: cell-based, M. abscessus subsp. abscessus; conditions: for decrease in survival compared to the DMSO-treated mutant control: 7 d under hypoxia, AMK 64 mg L^−1, AZI 32 mg L^−1, CFZ 2 mg L^−1; for susceptibility of the dosRS mutant to AMI or AZI after DosS inhibitor treatment: 40 μM DosS inhibitor, AMI 64 mg L^−1, AZI 32 mg L^−1, 7 d hypoxia; for decrease in viability compared to DMSO control: 40 μM, 7 d of hypoxia
Mabs ATCC 19977 = assay: MIC determination (resazurin blue test); format: cell-based, M. abscessus subsp. abscessus; conditions: Mycobacteroides abscessus, ATCC19977, 120 h, read-out: Minimum Inhibitory Concentrations (MICs)
WT Mabs ATCC 19977 [4] = assay: Biofilm formation assay in SCFM (crystal violet staining); format: cell-based, M. abscessus subsp. abscessus; conditions: Mycobacteroides abscessus, ATCC19977, 120 h, read-out: IC50 values (required to inhibit 50% of biofilm formation)
Mabs ATCC 19977 biofilms = assay: Biofilm dispersal assay on established 4-d old biofilms; format: cell-based, M. abscessus subsp. abscessus; conditions: 24 h in PBS
[5] = system: NO-signaling (dosR induction); assay: NO signaling: RT-qPCR of dosR after Spermine NONOate; format: cell-based, M. abscessus subsp. abscessus; conditions: 50 μM inhibitor for 1 h, then Spermine NONOate 50 μM for 40 min
Protocol: FIG. 18: Effect of DosS inhibitors on NO signaling. Mabs ATCC 19977 was grown to OD ˜0.3 in 7H9-ADC-Tween 80, treated for 1 h with either DMSO (control) or 50 μM of DosS inhibitors, followed by addition of Spermine NONOate (50 μM final concentration). […] Ratios of dosR/sigA mRNA are means±SD (n=3 RNA extractions and RT-qPCR reactions).
Since the DosRS pathway of MABSC has been reported to be induced by NO, RT-qPCR was used to determine whether ART, OZ439, and MSU-39446 inhibited the induction of DosR-regulated genes in WT Mabs ATCC 19977 following treatment with spermine/nitric oxide (Spermine/NO) for 40 min.

[6] = molecular target: Mabs ATCC 19977 DosS (MAB_3890c) (Mycobacteroides abscessus, UniProt B1MH83); assay: UV-visible spectroscopy assay of DosS heme redox status; format: biochemical, M. abscessus subsp. abscessus; conditions: 100 μM; DTN-reduced DosS (427 nm); at time 0
From the text: FIG. 7: Inhibition of the sensor kinase heme of DosS by ART, OZ439 and MSU-39446. UV-visible spectra of DosS showing treatment with dithionite (DTN) reduces the heme, which is the “on” state for the kinase. ART, OZ439 and MSU-39446, but not the degassed DMSO control, oxidize the heme.
UV-visible spectroscopy assay and mass spectrometry. A recombinant form of Mabs ATCC 19977 DosS (MAB_3890c) was produced in E. coli BL21(DE3) using the pET14b expression system (Novagen, Madison, WI) and pGro7, and purified essentially as described. Briefly, His-DosS expression was induced by isopropyl-thio-β-D-galactopyranoside (IPTG, 0.5 mM) at 16° C. for 20 h. The cell pellet was suspended in lysis buffer (50 mM sodium phosphate (pH 7.6), 10% glycerol, 200 mM sodium chloride, 1% Triton X-100, 0.5 mg mL^−1 lysozyme, 0.1 mg mL^−1 PMSF) and the cell suspension was incubated with shaking at 37° C. for 30 min prior to lysis using a French press (1400-1800 PSI). The soluble extract was applied to a Co^2+ column (Clontech) and washed with washing buffers (with or without 20 mM imidazole in 50 mM sodium phosphate (pH 7.6), 10% glycerol and 500 mM sodium chloride). […] The absorption spectrum of Mabs DosS ([…]) was analyzed as previously described. […] The UV-visible spectra were recorded for kinetic changes over 2 h using a UV-1800 spectrophotometer (Shimadzu). […]

MabsΔdosRS [7] = assay: RNA-seq transcriptional profiling under microaerophilic conditions, dosRS KO mutant; conditions: 20 μM
WT Mabs ATCC 19977 [8] = assay: Acute SCID mouse model of MABSC infection; conditions: SCID mice
in vivo = conditions: SCID, mouse, po, 50 mg/kg
Protocol: (A) Exposure of OZ439 in Mabs ATCC 19977-infected SCID mice. In the acute model, mice received OZ439 orally (200 mg/kg) every other d for 14 d. In the chronic model, mice received OZ439 orally (50 mg/kg) every other d for 28 d. Shown are the averages (±SD) of lung and plasma concentrations 2 and 48 hs after the last dosing. Two mice were used per time point in the acute model. Four mice were used per time point in the chronic model.
(A) Exposure of OZ277 in Mabs ATCC 19977-infected SCID mice. Mice received OZ277 orally (200 mg/kg) daily for 14 days. Shown are the averages (±SD) of lung and plasma concentrations 2 and 24 hours after the last dosing. Two mice were used per time point.
Four to eight Mabs ATCC 19977-infected SCID mice (2 to 4 mice per time point) having received OZ277 and OZ439 as stand-alone drugs by gavage were ethically euthanized on the last day of the experiment for comparison of drug concentrations in the plasma and lung tissues 2 and 24 h (OZ277) or 2 and 48 h (OZ439) after the last dose. For quantitation of OZ277 and OZ439 by HPLC coupled to tandem mass spectrometry (LC-MS/MS), 1 mg mL^−1 DMSO stock solutions of OZ277 and OZ439 were serially diluted in 50/50 acetonitrile/water to create standard curves and quality control spiking solutions. […] Lung tissues were weighed and homogenized in 19 volumes of PBS containing 1% formic acid to 1 part tissue that was pre-chilled. […]

WT Mabs ATCC 19977 [9] = assay: Chronic SCID mouse model of MABSC infection; conditions: SCID mice; 50 mg/kg gavage every other day for 28 d
[10] = in SCFM and cation-adjusted Mueller-Hinton II media, 5 d at 37° C., higher concentrations not tested due to solubility
[11] = 5 d of growth in SCFM, poly-D-lysine-coated plates
[12] = 200 mg/kg gavage for 14 days (OZ439 every other day)

Sequence of Mabs ATCC 19977 DosS (MAB_3890c) (B1MH83 entry or part of it): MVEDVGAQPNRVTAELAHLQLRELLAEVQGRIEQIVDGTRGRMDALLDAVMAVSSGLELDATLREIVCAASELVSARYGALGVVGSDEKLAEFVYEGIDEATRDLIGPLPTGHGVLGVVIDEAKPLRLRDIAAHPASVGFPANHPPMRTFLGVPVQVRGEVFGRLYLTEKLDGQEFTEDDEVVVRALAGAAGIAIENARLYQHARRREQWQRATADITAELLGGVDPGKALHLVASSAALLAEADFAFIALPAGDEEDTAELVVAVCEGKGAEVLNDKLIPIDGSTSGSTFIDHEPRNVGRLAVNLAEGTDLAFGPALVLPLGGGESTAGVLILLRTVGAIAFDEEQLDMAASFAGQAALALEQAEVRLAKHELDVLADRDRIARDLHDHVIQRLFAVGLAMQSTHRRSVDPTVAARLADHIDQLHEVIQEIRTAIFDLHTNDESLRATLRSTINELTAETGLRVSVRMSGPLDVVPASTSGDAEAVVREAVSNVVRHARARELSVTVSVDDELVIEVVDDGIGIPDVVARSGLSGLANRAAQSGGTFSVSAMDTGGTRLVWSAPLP
Protocol for THP-1 cells: FIG. 21: THP-1 cells were plated at 1×10^6 cells per ml in 24-well plates and treated for 24 hrs. with 10 ng/ml PMA for differentiating to macrophages. PMA medium was removed, and cells were cultured for an additional 24 hrs. Cells were then treated with either nothing, 300 ng/ml LPS or either Mabs ATCC19977 (smooth) or Mabs ATCC19977 (rough)(aka CipR) at an MOI of 5. After 9 h, the medium was removed and replaced with medium containing either nothing or 6 μM of OZ439 in triplicate wells and THP-1 cells were cultured for an additional 30 hr. Supernatants were harvested and assayed for NO production by the Griess Assay. Half the cells were stained with H2DCFDA for ROS analysis and half were stained for macrophage activation markers and analyzed by flow cytometry. Statistical differences between treatment groups were determined by one way ANOVA with Dunnett's multiple comparison test (*=p<0.05; ***=p<0.001; ****=p<0.0001).
THP-1 cells were plated at 1×10^6 cells per ml in 24-well plates and treated for 24 hrs. with 10 ng/ml PMA for differentiating to macrophages. PMA medium was removed, and cells were cultured for an additional 24 hrs. Cells were then treated with either nothing, 300 ng/ml LPS or either Mabs ATCC19977 (smooth) or Mabs ATCC19977 (rough) (aka CipR) at an MOI of 5. After 9 h, the medium was removed and replaced with medium containing either nothing or 6 μM of OZ439 in triplicate wells and THP-1 cells were cultured for an additional 30 hr. Supernatants were harvested and assayed for NO production by the Griess Assay. Half the cells were stained with H2DCFDA for ROS analysis and half were stained for macrophage activation markers and analyzed by flow cytometry. Statistical differences between treatment groups were determined by one way ANOVA with Dunnett's multiple comparison test (*=p<0.05; ***=p<0.001; ****=p<0.0001).

NCC[C@H](O)C(=O)N[C@@H]1C[C@H](N)[C@@H](O[C@H]2O[C@H](CN)[C@@H](O)[C@H](O)[C@H]2O)[C@H](O)[C@H]1O[C@H]1O[C@H](CO)[C@@H](O)[C@H](N)[C@H]1O [AMK, amikacin]
tolerance to antibiotics under hypoxia (WT Mabs ATCC 19977 [1]; WT): fully tolerant to all antibiotics
tolerance to antibiotics under hypoxia [2]: fully tolerant to all antibiotics
decrease in survival compared to the DMSO-treated mutant control (MabsΔdosRS [3]): 15%

C[C@@H]1CC[C@H]2[C@@H](C)C(=O)O[C@@H]3O[C@@]4(C)CC[C@@H]1[C@]32OO4 [ART, artemisinin]
MIC (Mabs ATCC 19977; [10]): > 400 µM
decrease in viability compared to DMSO-treated controls (WT Mabs ATCC 19977 [1]): 1.12 log10 CFU
tolerance of DosS inhibitor-treated cells to AMK (WT Mabs ATCC 19977 [1]; WT, 40 μM DosS inhibitor, AMK for 7 d under hypoxia): decrease in the tolerance
tolerance of DosS inhibitor-treated cells to AZI (WT Mabs ATCC 19977 [1]; WT, 40 μM DosS inhibitor): decrease in the tolerance
tolerance of DosS inhibitor-treated cells to CFZ (WT Mabs ATCC 19977 [1]; WT, 40 μM DosS inhibitor): unaffected
decrease in viability compared to DMSO-treated controls [2]: 0.64 log10 CFU
susceptibility of the dosRS mutant to AMI or AZI after DosS inhibitor treatment (MabsΔdosRS [3]): did not significantly enhance the susceptibility
decrease in viability compared to DMSO control (MabsΔdosRS [3]): did not exhibit any significant decrease in viability
IC50 (WT Mabs ATCC 19977 [4]; [11]): 0.8 to 1.6 µM
dispersal of established biofilms (Mabs ATCC 19977 biofilms): none of the compounds dispersed the biofilms
inhibition of NO-signaling (dosR induction) [5]: none of the inhibitors tested inhibited NO-signaling
DosS Soret peak position [6]: 421 nm
number of downregulated genes in the treated mutant (MabsΔdosRS [7]): 22

C[C@H]1[C@H](OC(=O)CCC(=O)O)O[C@@H]2O[C@@]3(C)CC[C@H]4[C@H](C)CC[C@@H]1[C@@]24OO3 [AS, artesunate]
MIC (Mabs ATCC 19977): > 400 µM
IC50 (WT Mabs ATCC 19977 [4]): 0.8 to 1.6 µM
dispersal of established biofilms (Mabs ATCC 19977 biofilms): none of the compounds dispersed the biofilms

CC[C@H]1OC(=O)[C@H](C)[C@@H](O[C@H]2C[C@@](C)(OC)[C@@H](O)[C@H](C)O2)[C@H](C)[C@@H](O[C@@H]2O[C@H](C)C[C@H](N(C)C)[C@H]2O)[C@](C)(O)C[C@@H](C)CN(C)[C@H](C)[C@@H](O)[C@]1(C)O [AZI, azithromycin]
tolerance to antibiotics under hypoxia (WT Mabs ATCC 19977 [1]; WT): fully tolerant to all antibiotics
tolerance to antibiotics under hypoxia [2]: fully tolerant to all antibiotics
decrease in survival compared to the DMSO-treated mutant control (MabsΔdosRS [3]): 64%

CC(C)/N=c1\cc2n(-c3ccc(Cl)cc3)c3ccccc3nc-2cc1Nc1ccc(Cl)cc1 [CFZ, clofazimine]
tolerance to antibiotics under hypoxia (WT Mabs ATCC 19977 [1]; WT): fully tolerant to all antibiotics
tolerance to antibiotics under hypoxia [2]: fully tolerant to all antibiotics
decrease in survival compared to the DMSO-treated mutant control (MabsΔdosRS [3]): 52%

CC(C)(N)CNC(=O)C[C@H]1CC[C@]2(CC1)OO[C@]1(O2)C2CC3CC(C2)CC1C3 [OZ277, arterolane]
MIC (Mabs ATCC 19977; [10]): > 400 µM
IC50 (WT Mabs ATCC 19977 [4]; [11]): 0.8 to 1.6 µM
dispersal of established biofilms (Mabs ATCC 19977 biofilms): none of the compounds dispersed the biofilms
bacterial burdens in lungs and liver, compound by itself (WT Mabs ATCC 19977 [8]; [12]): significantly reduced bacterial burdens
bacterial burdens in spleen, compound by itself (WT Mabs ATCC 19977 [8]; [12]): significantly reduced bacterial burdens
adjunct efficacy in combination with antibiotics (AMK, AZI, IMI, CFZ) (WT Mabs ATCC 19977 [8]; 200 mg/kg gavage, vs antibiotics alone): No statistically significant differences

c1cc([C@H]2CC[C@]3(CC2)OO[C@]2(O3)C3CC4CC(C3)CC2C4)ccc1OCCN1CCOCC1 [OZ439, artefenomel]
MIC (Mabs ATCC 19977; [10]): 400 µM (≈ 188 µg/mL)
decrease in viability compared to DMSO-treated controls (WT Mabs ATCC 19977 [1]): 1.18 log10 CFU
tolerance of DosS inhibitor-treated cells to AZI (WT Mabs ATCC 19977 [1]; WT, 40 μM DosS inhibitor): decrease in the tolerance
tolerance of DosS inhibitor-treated cells to CFZ (WT Mabs ATCC 19977 [1]; WT, 40 μM DosS inhibitor): unaffected
decrease in viability compared to DMSO-treated controls [2]: 0.72 log10 CFU
susceptibility of the dosRS mutant to AMI or AZI after DosS inhibitor treatment (MabsΔdosRS [3]): did not significantly enhance the susceptibility
decrease in viability compared to DMSO control (MabsΔdosRS [3]): did not exhibit any significant decrease in viability
IC50 (WT Mabs ATCC 19977 [4]; [11]): 0.8 to 1.6 µM
dispersal of established biofilms (Mabs ATCC 19977 biofilms): none of the compounds dispersed the biofilms
inhibition of NO-signaling (dosR induction) [5]: none of the inhibitors tested inhibited NO-signaling
concentration at 2 h (in vivo): ~6.2 µM
concentration at 48 h (in vivo): ~3.9 µM
reduction in bacterial load in the lung (WT Mabs ATCC 19977 [8]; 200 mg/kg gavage every other day for 14 d): ~1.8 log10
bacterial burdens in lungs and liver, compound by itself (WT Mabs ATCC 19977 [8]; [12]): significantly reduced bacterial burdens
efficacy by itself (bacterial loads in lungs, liver and spleen) (WT Mabs ATCC 19977 [9]): comparable to that of all four antibiotics
expression of macrophage activation markers (THP-1 cells; 6 μM OZ439 alone, non-infected): increased expression of some macrophage activation markers (MHC class II and CD80)
NO production (Griess Assay) (THP-1 cells; 6 μM, THP-1 infected with Mabs ATCC19977 smooth strain, 30 hr): reverted this activation
expression of macrophage activation markers (MHC class II, CD80, CD86, CD40) (THP-1 cells; 6 μM, THP-1 infected with Mabs, vs not treated): significant increases in all macrophage activation markers
ROS (H2DCFDA) (THP-1 cells; 6 μM, absence of Mabs infection): upregulated
ROS production (H2DCFDA) (THP-1 cells; 6 μM, cultures infected with Mabs (rough or smooth)): decreased
number of downregulated genes in the treated mutant (MabsΔdosRS [7]): 10
